Data published in patent US20250144067A1, “PERSONALIZED STARVATION THERAPY FOR CANCER” (Faeth Therapeutics, Inc., priority 2021, published 2025).
Where a name gives a salt, the structure may show the parent alone. Read-outs that look alike come from different tables or passages of the source.

Assays:
[1] = system: NCI-H292 lung cancer cells; assay: FDA drug screening, complete media vs cholesterol-free media without statin (TABLE 1); format: cell-based, human
[2] = system: NCI-H292 lung cancer cells; assay: FDA drug screening, complete media vs cholesterol-free media with simvastatin (TABLE 2); format: cell-based, human
[3] = Complete minus Cholesterol-free, […]
[4] = NCI-H292 cells in cholesterol-free media without statin
[5] = NCI-H292 cells in complete media
[6] = NCI-H292 cells, FDA drug library screen, cholesterol-free media with simvastatin 0.04 μM
[7] = NCI-H292 cells, FDA drug library screen, complete media
[8] = complete media minus cholesterol-free media + simvastatin, […]
[9] = NCI-H292 cells, cholesterol-free media without statin, FDA drug library screen
[10] = NCI-H292 cells, complete media, FDA drug library screen
[11] = Complete minus Cholesterol-free, >0 enhanced anti-cancer activity, about 0 neutral, <0 antagonist
[12] = complete media vs cholesterol-free media + simvastatin (0.04 μM), >0 enhanced anti-cancer activity, about 0 neutral, <0 antagonist
[13] = NCI-H292 cells, cholesterol-free media without statin
[14] = complete vs cholesterol-free media, greater than 0 enhanced anti-cancer activity, about 0 neutral, below 0 antagonists
[15] = NCI-H292 cells, cholesterol-free media with simvastatin 0.04 μM, FDA drug library screen (TABLE 2)
[16] = NCI-H292 cells, complete media, FDA drug library screen (TABLE 2)
[17] = complete media minus cholesterol-free media + simvastatin (0.04 μM), >0 enhanced anti-cancer activity, about 0 neutral, <0 antagonist
[18] = NCI-H292 cells, FDA library drug in cholesterol-free media with simvastatin 0.04 μM
[19] = NCI-H292 cells, FDA library drug in complete media
[20] = Complete minus Cholesterol-free, greater than 0 enhanced anti-cancer activity, about 0 neutral, below 0 antagonist
[21] = NCI-H292 cells, FDA drug library screen, cholesterol-free media without statin
[22] = complete media minus cholesterol-free media + simvastatin, >0 enhanced anti-cancer activity, about 0 neutral, <0 antagonist
[23] = NCI-H292 cells, drug in cholesterol-free media with simvastatin 0.04 μM
[24] = NCI-H292 cells, drug in complete media
[25] = complete vs cholesterol-free media, >0 enhanced anti-cancer activity, about 0 neutral, <0 antagonist

CCC1(C)CC(=O)NC(=O)C1 [Bemegride]
Difference [1, 3]: −0.76
Cholesterol-free [1, 4]: 1.658
Complete [1, 5]: 0.894
Cholesterol-free media + simvastatin (0.04 μM) [2, 6]: 0.8627
Complete Media [2, 7]: 1.013
Difference [2, 8]: 0.15

CCN(CC)c1ccc(C(=C2C=CC(=[N+](CC)CC)C=C2)c2cc(S(=O)(=O)[O-])ccc2S(=O)(=O)[O-])cc1.[Na+] [Isosulfan blue]
Difference [1, 3]: −0.07
Cholesterol-free [1, 9]: 1.156
Complete [1, 10]: 1.087
Cholesterol-free media + simvastatin (0.04 μM) ([2]; NCI-H292 cells, cholesterol-free media with simvastatin 0.04 μM, […]): 1.148
Complete Media ([2]; NCI-H292 cells, complete media, […]): 1.247
Difference [2, 8]: 0.10

C=CC(=O)N1CCC[C@@H](n2nc(-c3ccc(Oc4ccccc4)cc3)c3c(N)ncnc32)C1 [Ibrutinib]
Difference [1, 11]: −0.07
Cholesterol-free [1, 9]: 0.4459
Complete [1, 10]: 0.3765
Cholesterol-free media + simvastatin (0.04 μM) [2, 6]: 0.5962
Complete Media [2, 7]: 0.4594
Difference [2, 12]: −0.14

O=C1NCN(c2ccccc2)C12CCN(CCCC(c1ccc(F)cc1)c1ccc(F)cc1)CC2 [Fluspirilene]
Cholesterol-free [1, 13]: 1.319
Complete ([1]; NCI-H292 cells, complete media): 0.9067
Difference [1, 14]: −0.41
Cholesterol-free media + simvastatin (0.04 μM) [2, 15]: 1.267
Complete Media [2, 16]: 1.241
Difference [2, 17]: −0.03

Cc1cn([C@H]2C[C@H](N=[N+]=[N-])[C@@H](CO)O2)c(=O)[nH]c1=O [Zidovudine]
Difference [1, 11]: −0.01
Cholesterol-free [1, 9]: 1.211
Complete [1, 10]: 1.205
Cholesterol-free media + simvastatin (0.04 μM) [2, 18]: 1.856
Complete Media [2, 19]: 1.268
Difference [2, 12]: −0.59

NC(=O)[C@@H]1C[C@]2(NC(=O)NC2=O)c2cc(F)ccc2O1 [Fidarestat]
Cholesterol-free [1]: 1.491
Complete [1]: 0.686
Difference [1]: −0.80
Cholesterol-free media + simvastatin (0.04 μM) [2]: 1.63
Complete Media [2]: 1.736
Difference [2]: 0.11

Nc1nc(O)c2ncn(COC(CO)CO)c2n1 [Ganciclovir]
Difference [1, 11]: 0.07
Cholesterol-free [1, 9]: 0.8931
Complete [1, 10]: 0.9638
Cholesterol-free media + simvastatin (0.04 μM) [2, 15]: 0.88
Complete Media [2, 16]: 0.8599
Difference [2, 17]: −0.02

C=C[C@]1(C)C[C@@H](OC(=O)CS[C@@H]2C[C@H]3CC[C@@H](C2)N3C)[C@]2(C)[C@H](C)CC[C@]3(CCC(=O)[C@H]32)[C@@H](C)[C@@H]1O [Retapamulin]
Difference [1, 20]: −0.18
Cholesterol-free [1, 21]: 1.002
Complete [1, 7]: 0.8221
Cholesterol-free media + simvastatin (0.04 μM) [2, 15]: 1.667
Complete Media [2, 16]: 1.638
Difference [2, 17]: −0.03

Trimipramine (maleate)
Difference ([1]; Complete minus Cholesterol-free, greater than 0 enhanced anti-cancer activity, about 0 neutral, below 0 antagonists): −0.51
Cholesterol-free [1, 4]: 1.537
Complete [1, 5]: 1.022
Cholesterol-free media + simvastatin (0.04 μM) [2, 6]: 1.033
Complete Media [2, 7]: 1.193
Difference [2, 22]: 0.16

Cc1nc(C)c(C)nc1C [Ligustrazine (hydrochloride)]
Difference [1, 11]: −0.06
Cholesterol-free [1, 9]: 1.047
Complete [1, 10]: 0.9829
Cholesterol-free media + simvastatin (0.04 μM) [2, 23]: 1.229
Complete Media [2, 24]: 1.02
Difference [2, 12]: −0.21

Cc1nc2ccc(CN(C)c3ccc(C(=O)N[C@@H](CCC(=O)O)C(=O)O)s3)cc2c(=O)[nH]1 [Raltitrexed]
Difference [1, 11]: −0.24
Cholesterol-free [1, 13]: 0.3503
Complete ([1]; NCI-H292 cells, complete media): 0.1117
Cholesterol-free media + simvastatin (0.04 μM) [2, 15]: 0.1121
Complete Media [2, 16]: 0.0907
Difference [2, 17]: −0.02

O=C(O)CC(O)(CC(=O)O)C(=O)O [Citric acid]
Difference [1, 20]: −0.17
Cholesterol-free [1, 21]: 0.92
Complete [1, 7]: 0.7466
Cholesterol-free media + simvastatin (0.04 μM) [2, 15]: 1.227
Complete Media [2, 16]: 1.209
Difference [2, 17]: −0.02

C[C@@H]1O[C@@H]1P(=O)(O)O [Fosfomycin (calcium)]
Difference [1, 11]: −0.27
Cholesterol-free [1, 13]: 1.27
Complete ([1]; NCI-H292 cells, complete media): 1.001
Cholesterol-free media + simvastatin (0.04 μM) [2, 23]: 1.093
Complete Media [2, 24]: 0.8864
Difference [2, 12]: −0.21

CCOC(=O)[C@H](CCc1ccccc1)N[C@@H](C)C(=O)N1Cc2ccccc2C[C@H]1C(=O)O [Quinapril (hydrochloride)]
Cholesterol-free [1, 9]: 0.6191
Complete [1, 10]: 0.9945
Difference [1, 25]: 0.38
Cholesterol-free media + simvastatin (0.04 μM) [2, 18]: 1.23
Complete Media [2, 19]: 0.862
Difference [2, 12]: −0.37

Cc1ccc(NC(=O)C2(c3ccc4c(c3)OC(F)(F)O4)CC2)nc1-c1cccc(C(=O)O)c1 [Lumacaftor]
Difference [1, 11]: −0.19
Cholesterol-free [1, 13]: 1.044
Complete ([1]; NCI-H292 cells, complete media): 0.854
Cholesterol-free media + simvastatin (0.04 μM) [2, 23]: 1.744
Complete Media [2, 24]: 1.539
Difference [2, 12]: −0.20

COc1cc2c(cc1OC)C(=O)C(CC1CCN(Cc3ccccc3)CC1)C2 (stereo not shown) [Donepezil (Hydrochloride)]
Difference [1, 11]: −0.23
Cholesterol-free [1, 13]: 0.9321
Complete ([1]; NCI-H292 cells, complete media): 0.7035
Cholesterol-free media + simvastatin (0.04 μM) [2, 6]: 0.6694
Complete Media [2, 7]: 0.8164
Difference [2, 22]: 0.15

COc1ccc2cc([C@H](C)C(=O)O)ccc2c1 [Naproxen (sodium)]
Cholesterol-free [1, 13]: 1.162
Complete ([1]; NCI-H292 cells, complete media): 0.8469
Difference [1, 14]: −0.32
Cholesterol-free media + simvastatin (0.04 μM) [2, 6]: 1.198
Complete Media [2, 7]: 1.058
Difference [2, 12]: −0.14

Nelfinavir (Mesylate)
Difference [1, 11]: −0.02
Cholesterol-free [1, 9]: 1.193
Complete [1, 10]: 1.169
Cholesterol-free media + simvastatin (0.04 μM) [2, 18]: 1.565
Complete Media [2, 19]: 1.199
Difference [2, 12]: −0.37

O=C(Nc1cccc2c(=O)cc(-c3nnn[nH]3)oc12)c1ccc(OCCCCc2ccccc2)cc1 [Pranlukast (hemihydrate)]
Difference [1, 20]: −0.10
Cholesterol-free [1, 21]: 1.075
Complete [1, 7]: 0.9755
Cholesterol-free media + simvastatin (0.04 μM) ([2]; NCI-H292 cells, cholesterol-free media with simvastatin 0.04 μM, cell growth value in FDA drug screen): 1.189
Complete Media ([2]; NCI-H292 cells, complete media, cell growth value in FDA drug screen): 1.285
Difference [2, 22]: 0.10

C[C@H](CCC(=O)O)[C@H]1CC[C@H]2[C@@H]3[C@H](O)C[C@@H]4C[C@H](O)CC[C@]4(C)[C@H]3CC[C@]12C [Chenodeoxycholic Acid]
Cholesterol-free [1, 9]: 0.7972
Complete [1, 10]: 1.211
Difference [1, 25]: 0.41
Cholesterol-free media + simvastatin (0.04 μM) [2, 15]: 0.895
Complete Media [2, 16]: 0.9061
Difference [2, 17]: 0.01

Nc1cc(Cl)c(N=C2NCCN2)c(Cl)c1 [Apraclonidine (hydrochloride)]
Complete ([1]; NCI-H292 cells, complete media): 1.213
Difference [1, 14]: −0.41
Cholesterol-free media + simvastatin (0.04 μM) [2, 18]: 1.345
Complete Media [2, 19]: 1.018
Difference [2, 12]: −0.33

CCc1ccc(CCOc2ccc(CC3SC(=O)NC3=O)cc2)nc1 (stereo not shown) [Pioglitazone]
Cholesterol-free [1, 9]: 0.8939
Difference [1, 25]: 0.27
Cholesterol-free media + simvastatin (0.04 μM) [2, 18]: 2.095
Complete Media [2, 19]: 1.521
Difference [2, 12]: −0.57

COc1ccc(C(=O)c2ccccc2)c(O)c1 [Oxybenzone]
Difference [1, 11]: −0.29
Cholesterol-free [1, 13]: 1.383
Complete ([1]; NCI-H292 cells, complete media): 1.094
Cholesterol-free media + simvastatin (0.04 μM) [2, 23]: 1.175
Complete Media [2, 24]: 0.918
Difference [2, 12]: −0.26
